Here are results for five molecules from patent publication EP0609289B1, “IMIDAZOLE DERIVATIVES AND PHARMACEUTICAL COMPOSITIONS CONTAINING THE SAME” (THE UPJOHN COMPANY, priority 1991, dated 1993).

Assay [1] has as its system blood pressure increase by angiotensin II. Put plainly: Antagonism to blood pressure increase by angiotensin II in a spine destroyed (pithed) rat (test 4). Conditions: intravenous administration, 3µg/kg angiotensin II, read-out: Inhibition of blood pressure increase by angiotensin II in pithed rat ED50(mg/kg) (test 4). The format is in vivo, Wistar rat. The text has this:
4) Antagonism to blood pressure increasing by angiotensin II in a spine destroyed rat
Wistar rat anaesthetized with pentobarbital was fixed at dorsal position, and a cannula for measuring blood pressure was inserted into sinister arteria carotis communis, and a cannula for administration of the test compound into dexter external jugular vein and a cannula for administration of angiotensin II into sinister external jugular vein, ambilateral nervus vagus was cut, and artificial respiration was carried out. A thin bar made of metal was stabbed into spinal column through sinister orbita to destroy spine. Blood pressure was recorded on polygraph via pressure transducer from an arterial cannula. After blood pressure was stable for more than 30 min., 3µg/kg of angiotensin II was administered intravenously four times every 15 min, and every 5 min. before the administration of angiotensin II from the second administration onward, a solvent, a lower dose of the test compound, and a higher dose of the test compound were administered intravenously in this order to observe the blood pressure increasing response by angiotensin II. ED50 values were calculated from the inhibiting rate when the first blood pressure increase by angiotensin II was regarded as 100 %.

Assay [2] concerns hypertensive rat model (SHR). Put plainly: Oral administration test in hypertensive rat model (SHR). The format is in vivo. Conditions: 10 mg/kg oral administration.
Assay [3] relates to blood pressure increase by angiotensin II. The assay can be described thus: Blood pressure increase by angiotensin II-inhibiting test, intraduodenal administration, anesthetized normotensive rat. In kind it is in vivo.
In assay [4] the test system is angiotensin II constriction in an isolated rabbit thoracic aorta. The assay can be described thus: Antagonism to angiotensin II constriction in an isolated rabbit thoracic aorta (test 3). The settings on record: test compound 10^-6 M for 20 minutes. On the procedure: 3) Antagonism to angiotensin II constriction in an isolated rabbit thoracic aorta
A rectangular strip-like sample of thoracic aorta isolated from an anaesthetized rabbit was prepared, and the sample was suspended at 2.0 g of loaded tension in a Magnus tube filled with Krebs-Henseleitoid nutrition solution which was well aerated with 95% O2-5% CO2, and the constriction tension was measured using an isometric transducer. After the tension of the sample at rest became stable, accumulative administration of angiotensin II was carried out to obtain a concentration-action curve. Thereafter, the sample was washed with the same nutrition solution, then treated with test compound (10^-6 M) for 20 minutes to obtain again a concentration-action curve of angiotensin II. The results were obtained as followed: generated maximum tension at the first accumulative administration of angiotensin II was regarded as 100 %, and the 50 % effective concentration (ED50) was obtained in the presence or absence of the test compound, and pA2 value was calculated according to the following equations: • pA2=-logKB KB=C/{(A'/A)-1} • C; concentration of the test compound (M) • A'; ED50 in the presence of test compound (M) • A; ED50 in the absence of the test compound (M)

Assay [5] has as its target Angiotensin II receptor. Put plainly: In vitro angiotensin II mesenteric artery receptor binding assay (test 1). The settings on record: rat mesenteric artery membrane fraction, 0.2 nM 125I-Ang II, 22°C, 90 minutes. A digest of the protocol:
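Rat mesenteric artery membranes ([…] protein equivalent) incubated with 0.2 nM ^125I-Ang II and compound, 90 min at 22°C, pH 7.2 Tris buffer. Bound radioactivity counted after filtration; nonspecific binding defined with 1 µM unlabeled angiotensin II.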

As for `CCCCc1nc2c(n1Cc1ccc(-c3ccccc3-c3nn[nH]n3)cc1)C(=O)N1N(C2)C2(C)CCC1(C)CC2` [Compound No. 451, 2-n-butyl-5,8-dimethyl-5,8-ethano-5,6,7,8-tetrahydro-1-[{2'-(1H-tetrazol-5-yl)biphenyl-4-yl}methyl]-1H,4H-1,3,4a,8a-tetraza-cyclopentanaphthalene-9-one], the ED50 came to 0.63 mg/kg in assay [1] and 0.84 mg/kg in assay [3]. In assay [2], the vasodepressor activity result is “significant vasodepressor activity over 24 hours”. Besides, the action lasting time result in assay [3] (1 mg/kg) is listed as “not less than 5 hours”. Further, the “Inhibition of rabbit aorta constriction pA2 (test 3)” value (from here on “Inhibition”) in assay [4] was determined as 10.04. Besides, the half-inhibitory concentration (IC50) in assay [5] was found to be 1.9 nM.
As for `CCCCc1nc2c(n1Cc1ccc(-c3ccccc3-c3nnn[nH]3)cc1)C(=O)N1N(C2)C2(CC)CCC1(CC)CC2` [Compound No. 455, 2-n-butyl-5,8-diethyl-5,8-ethano-5,6,7,8-tetrahydro-1-[{2'-(1H-tetrazol-5-yl)biphenyl-4-yl}methyl]-1H,4H-1,3,4a,8a-tetraza-cyclopentanaphthalene-9-one], the figures for the ED50 in assay [1] and in assay [3] were 0.64 mg/kg and 0.81 mg/kg, respectively. Further, in assay [3] (1 mg/kg), the action lasting time entry was “not less than 5 hours”. The “Inhibition” value in assay [4] was found to be 8.82. Further, the IC50 in assay [5] came to 3.3 nM.
On to `CCCc1nc2c(n1Cc1ccc(-c3ccccc3-c3nnn[nH]3)cc1)C(=O)N1N(C2)C2(CC)CCC1(CC)CC2` [Compound No. 454, 5,8-diethyl-5,8-ethano-2-n-propyl-5,6,7,8-tetrahydro-1-[{2'-(1H-tetrazol-5-yl)biphenyl-4-yl}methyl]-1H,4H-1,3,4a,8a-tetraza-cyclopentanaphthalene-9-one], for which the ED50 is 0.34 mg/kg in assay [1] and 1.28 mg/kg in assay [3]. In addition, the action lasting time entry in assay [3] (3 mg/kg) is listed as “not less than 5 hours”. Moreover, the “Inhibition” value in assay [4] is listed as 10.34. In assay [5], this molecule displayed an IC50 of 3.5 nM.
The like results for `CCCc1nc2c(n1Cc1ccc(-c3ccccc3-c3nn[nH]n3)cc1)C(=O)N1N(C2)C2(C)CCC1(C)CC2` [Compound No. 450, 5,8-dimethyl-5,8-ethano-2-n-propyl-5,6,7,8-tetrahydro-1-[{2'-(1H-tetrazol-5-yl)biphenyl-4-yl}methyl)-1H,4H-1,3,4a,8a-tetraza-cyclopentanaphthalene-9-one] were, in that order, 0.32 mg/kg, 0.95 mg/kg, “not less than 5 hours”, 9.92 and 1.7 nM.
In the case of `CCCc1nc2c(=O)n3n(c(=O)c2n1Cc1ccc(-c2ccccc2-c2nn[nH]n2)cc1)C(C)CCC3C(=O)OCC` (stereo not drawn) [Compound No. 139, ethyl 4,9-dioxo-8-methyl-2-n-propyl-5,6,7,8-tetrahydro-1-[(2'-(1H-tetrazol-5-yl)biphenyl-4-yl)methyl]-1H-1,3,4a,8a-tetraza-cyclopentanaphthalene-5-carboxylate], in assay [1], the ED50 is 0.038 mg/kg. Further, the “Inhibition” value in assay [4] is recorded as 10.63. For the same molecule, the IC50 in assay [5] was found to be 1.9 nM.

As usually defined, the IC50 is the concentration that gives 50% inhibition. A high value points to weaker potency in that assay.
